Assay results reported in paper PMC5920526 (ACS catalysis, 2017).

Columns and labels:
SpNanB = SpNanB (Streptococcus pneumoniae serotype 4, UniProt Q54727); assay: Sialidase inhibition, Neu5Acα2–3GalβpNP as substrate; assay type: biochemical; details: 0.1 mM inhibitor
SpNanA = SpNanA (Streptococcus pneumoniae, UniProt P62575); assay: biochemical; details: read-out: IC50 against SpNanA; Neu5Acα2–3GalβpNP as substrate
AuSialidase = AuSialidase (Paenarthrobacter ureafaciens, UniProt Q5W7Q2); assay: Sialidase inhibition, Neu5Acα2–3GalβpNP as substrate; assay type: biochemical, Arthrobacter ureafaciens; details: 0.1 mM inhibitor
BiNanH2 = BiNanH2 (Bifidobacterium longum subsp. infantis, UniProt A0ACD7UU12); assay: as above; assay type: biochemical; details: read-out: IC50 against BiNanH2; Neu5Acα2–3GalβpNP as substrate
SpNanC [1] = assay: as above; assay type: biochemical, Streptococcus pneumoniae; details: 0.1 mM inhibitor
CpNanH = CpNanH (Clostridium perfringens, UniProt P10481); assay type: biochemical
viral sialidases = details: cited from earlier work
[2] = biological target: human cytosolic sialidase hNEU2 (Homo sapiens, UniProt Q9Y3R4); assay: Sialidase inhibition, Neu5Acα2–3GalβpNP as substrate; assay type: biochemical; details: 0.1 mM inhibitor
PmST1 = PmST1 (Pasteurella multocida, UniProt Q15KI8); assay type: biochemical; details: 0.1 mM inhibitor
VcSialidase = VcSialidase (Vibrio cholerae serotype O1, UniProt P0C6E9); assay: biochemical
recombinant SpNanC = details: substance as substrate of previously reported recombinant SpNanC; cited from earlier work
SpNanC [3] = assay: Substrate specificity of SpNanC with pNP-tagged α2–3-linked sialosides; assay type: biochemical, Streptococcus pneumoniae; details: sialoside as substrate of SpNanC
SpNanC [4] = assay: Kinetics studies of SpNanC; assay type: biochemical, Streptococcus pneumoniae; details: substance as substrate of SpNanC
human NEU1 = details: cited from earlier work

SpNanB, sequence (Q54727 30-697): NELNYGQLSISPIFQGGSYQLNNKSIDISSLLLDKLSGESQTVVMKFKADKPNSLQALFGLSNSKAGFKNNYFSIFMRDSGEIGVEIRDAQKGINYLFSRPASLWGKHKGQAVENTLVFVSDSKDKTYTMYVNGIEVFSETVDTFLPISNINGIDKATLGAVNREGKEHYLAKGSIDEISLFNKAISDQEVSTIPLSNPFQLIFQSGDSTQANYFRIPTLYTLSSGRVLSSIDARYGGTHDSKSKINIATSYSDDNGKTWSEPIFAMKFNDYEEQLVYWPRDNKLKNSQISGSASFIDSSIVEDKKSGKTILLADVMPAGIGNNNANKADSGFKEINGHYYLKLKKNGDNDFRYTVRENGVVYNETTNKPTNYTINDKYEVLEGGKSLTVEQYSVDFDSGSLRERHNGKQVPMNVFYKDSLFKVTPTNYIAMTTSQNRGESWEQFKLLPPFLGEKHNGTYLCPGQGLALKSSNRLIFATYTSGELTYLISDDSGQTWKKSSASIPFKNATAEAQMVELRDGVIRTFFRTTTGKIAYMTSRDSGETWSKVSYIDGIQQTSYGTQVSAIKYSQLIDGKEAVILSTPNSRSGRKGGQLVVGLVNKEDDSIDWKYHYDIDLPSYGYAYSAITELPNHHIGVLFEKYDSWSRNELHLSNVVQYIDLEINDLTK
human cytosolic sialidase hNEU2, sequence (Q9Y3R4 whole entry): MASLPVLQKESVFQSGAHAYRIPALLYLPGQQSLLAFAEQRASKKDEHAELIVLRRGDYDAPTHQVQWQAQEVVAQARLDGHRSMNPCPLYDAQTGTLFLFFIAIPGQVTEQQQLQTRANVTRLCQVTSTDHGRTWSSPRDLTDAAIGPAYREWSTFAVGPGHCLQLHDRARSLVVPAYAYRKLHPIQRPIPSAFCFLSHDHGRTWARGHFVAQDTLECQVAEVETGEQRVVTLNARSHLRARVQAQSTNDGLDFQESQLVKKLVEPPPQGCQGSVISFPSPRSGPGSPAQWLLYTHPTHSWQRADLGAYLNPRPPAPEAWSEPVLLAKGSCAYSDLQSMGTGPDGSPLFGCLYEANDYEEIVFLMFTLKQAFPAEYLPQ
CpNanH, sequence (P10481 whole entry, looked up): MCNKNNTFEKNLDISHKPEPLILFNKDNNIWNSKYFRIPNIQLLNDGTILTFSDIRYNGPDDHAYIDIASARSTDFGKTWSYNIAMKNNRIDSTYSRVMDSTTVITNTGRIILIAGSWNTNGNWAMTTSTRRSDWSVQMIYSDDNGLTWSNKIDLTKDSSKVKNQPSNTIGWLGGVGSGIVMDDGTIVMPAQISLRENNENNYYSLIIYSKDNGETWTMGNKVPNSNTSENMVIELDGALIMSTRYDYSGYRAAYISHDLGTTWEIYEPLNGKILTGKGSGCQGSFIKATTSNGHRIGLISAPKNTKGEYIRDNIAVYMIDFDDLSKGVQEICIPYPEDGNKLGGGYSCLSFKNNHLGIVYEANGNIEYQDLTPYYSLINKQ
VcSialidase, sequence (P0C6E9 25-781): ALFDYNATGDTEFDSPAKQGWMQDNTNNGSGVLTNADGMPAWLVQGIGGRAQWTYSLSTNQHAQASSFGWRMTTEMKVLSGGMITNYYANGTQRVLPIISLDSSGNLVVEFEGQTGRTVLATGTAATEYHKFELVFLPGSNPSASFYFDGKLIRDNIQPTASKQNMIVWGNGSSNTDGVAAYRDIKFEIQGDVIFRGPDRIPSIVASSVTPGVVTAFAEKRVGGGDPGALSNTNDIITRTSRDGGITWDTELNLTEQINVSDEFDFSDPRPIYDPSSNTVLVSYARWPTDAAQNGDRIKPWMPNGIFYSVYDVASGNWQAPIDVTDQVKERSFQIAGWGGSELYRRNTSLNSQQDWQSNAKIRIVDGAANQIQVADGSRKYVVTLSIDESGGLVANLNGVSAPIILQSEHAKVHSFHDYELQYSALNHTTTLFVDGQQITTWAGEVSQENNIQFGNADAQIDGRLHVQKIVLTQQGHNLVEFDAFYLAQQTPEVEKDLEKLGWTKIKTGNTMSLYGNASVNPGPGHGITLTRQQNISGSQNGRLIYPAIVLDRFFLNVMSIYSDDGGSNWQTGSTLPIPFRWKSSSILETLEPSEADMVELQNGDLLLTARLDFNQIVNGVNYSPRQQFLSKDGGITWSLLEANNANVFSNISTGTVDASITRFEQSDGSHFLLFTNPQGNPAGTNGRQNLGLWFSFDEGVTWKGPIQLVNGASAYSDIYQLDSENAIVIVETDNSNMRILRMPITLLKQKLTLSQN
SpNanA, sequence (P62575 54-1035): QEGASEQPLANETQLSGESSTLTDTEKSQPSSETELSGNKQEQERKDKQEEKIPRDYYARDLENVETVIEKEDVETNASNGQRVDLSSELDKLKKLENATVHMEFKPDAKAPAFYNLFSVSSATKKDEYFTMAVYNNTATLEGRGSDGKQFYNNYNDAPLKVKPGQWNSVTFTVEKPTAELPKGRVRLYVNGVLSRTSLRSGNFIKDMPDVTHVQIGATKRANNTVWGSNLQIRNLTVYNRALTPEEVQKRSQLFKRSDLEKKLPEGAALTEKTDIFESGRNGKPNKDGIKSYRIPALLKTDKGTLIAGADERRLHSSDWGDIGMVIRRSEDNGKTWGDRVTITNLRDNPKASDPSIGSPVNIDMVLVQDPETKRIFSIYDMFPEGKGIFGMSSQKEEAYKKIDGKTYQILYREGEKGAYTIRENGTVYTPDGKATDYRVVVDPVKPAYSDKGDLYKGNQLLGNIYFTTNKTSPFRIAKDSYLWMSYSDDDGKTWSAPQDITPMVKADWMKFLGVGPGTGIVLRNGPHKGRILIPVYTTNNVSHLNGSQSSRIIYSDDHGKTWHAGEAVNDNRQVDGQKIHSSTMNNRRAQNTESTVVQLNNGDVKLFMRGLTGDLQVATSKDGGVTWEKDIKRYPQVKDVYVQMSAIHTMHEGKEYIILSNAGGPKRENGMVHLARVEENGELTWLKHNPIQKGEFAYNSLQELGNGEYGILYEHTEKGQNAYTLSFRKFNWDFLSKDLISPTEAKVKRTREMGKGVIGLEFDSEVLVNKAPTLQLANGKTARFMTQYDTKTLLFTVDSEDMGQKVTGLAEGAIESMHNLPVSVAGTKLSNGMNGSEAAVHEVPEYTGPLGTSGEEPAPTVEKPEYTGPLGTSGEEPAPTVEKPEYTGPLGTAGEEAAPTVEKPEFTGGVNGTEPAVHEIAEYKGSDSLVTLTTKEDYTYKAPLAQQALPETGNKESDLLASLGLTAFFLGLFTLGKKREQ

| SMILES | inhibitory activity against SpNanB (in words) (SpNanB) | IC50 (SpNanA) [µM] | inhibitory activity against AuSialidase (in words) (AuSialidase) | IC50 (BiNanH2) [µM] | inhibitory activity against SpNanC (in words) (SpNanC [1]) | inhibitory activity against CpNanH (in words) (CpNanH) | selectivity against viral sialidases (viral sialidases) | inhibitory activity against hNEU2 (in words) [2] | inhibitory activity against PmST1 (in words) (PmST1) | inhibitory activity against VcSialidase (in words) (VcSialidase) | Km (recombinant SpNanC) [µM] | kcat (recombinant SpNanC) [s⁻¹] | Percentage conversion (SpNanC [3]) [%] | Km (SpNanC [4]) [µM] | kcat (SpNanC [4]) [s⁻¹] | selectivity against human NEU1 (human NEU1) |
| --- | --- | --- | --- | --- | --- | --- | --- | --- | --- | --- | --- | --- | --- | --- | --- | --- |
| CC(=O)N[C@H]1[C@H]([C@H](O)[C@H](O)CNC(=O)C2CC2)OC(C(=O)O)=C[C@@H]1O [compound 13, Neu5Ac9NCyclopro2en] | not effective inhibitors | 6.8 ± 0.2 | lowered the inhibitory activity | 29 ± 2 | not effective inhibitors | not effective inhibitors | higher selectivity | lowered the inhibitory activity | not effective inhibitors | lowered the inhibitory activity |  |  |  |  |  |  |
| CC(=O)N[C@H]1[C@H]([C@H](O)[C@H](O)CO)O[C@@](O[C@H]2[C@@H](O)[C@@H](CO)O[C@@H](O[C@H]3[C@H](O)[C@@H](O)C(O)O[C@@H]3CO)[C@@H]2O)(C(=O)O)C[C@@H]1O (stereo partly drawn) [α2–3-sialyllactose] |  |  |  |  |  |  |  |  |  |  | 1080 ± 350 | 0.313 ± 0.052 |  |  |  |  |
| CC(=O)N[C@H]1[C@H]([C@H](O)[C@H](O)CO)OC(O[C@H]2[C@@H](O)[C@@H](CO)O[C@@H](Oc3ccc([N+](=O)[O-])cc3)[C@@H]2O)(C(=O)O)C[C@@H]1O (stereo partly shown) [Neu5Acα2–3GalβpNP] |  |  |  |  |  |  |  |  |  |  |  |  | 85.1 ± 2.4 | 2700 ± 500 | 406.8 ± 39.0 |  |
| CCCCC(=O)NC[C@@H](O)[C@@H](O)[C@@H]1OC(C(=O)O)=C[C@H](O)[C@H]1NC(C)=O [compound 12, Neu5Ac9NPent2en] | not effective inhibitors | 10.5 ± 0.5 | lowered the inhibitory activity | 34 ± 2 | not effective inhibitors | not effective inhibitors |  | lowered the inhibitory activity | not effective inhibitors | lowered the inhibitory activity |  |  |  |  |  | improved selectivity |
